PubChem BioAssay AID2060909 (Molecular Pharmacology Branch, DTP, NCI, 2025)

Test system: 362531-283-R-J2-PDC complex spheroid viability
Test: Anticancer human tumor 362531-283-R-J2-PDC patient-derived colon adenocarcinoma cell line growth inhibition [RAS]
Settings: for IC50: curve of first compound; for viability, T/C: stronger effect = lower value; active means viability on the fitted dose curve at most 10% of control; inactive means the rest
Text: RAS pathway inhibitors in Combinations in Complex Spheroids
A high-throughput screen of multi-cell type tumor spheroids was designed to identify active combinations of RAS pathway inhibitors and targeted small molecules. Complex spheroids include a stromal component modeled by human endothelial cells (HUVEC) and fibroblasts modeled by human mesenchymal stem cells (MSCs). The concentration ranges selected for each drug and investigational agent were based upon clinically achievable concentrations if the clinical Cmax of the agent was known.
Compounds. The drugs and investigational agents: abemaciclib (NSC768073), cobimetinib (NSC768068), divarasib (GDC6063, NSC841802), docetaxel (NSC628503), GDC-1971 (RLY-1971, NSC841576), gemcitabine (NSC613327), inavolisib (NSC800729), ipatasertib (NSC767898), KB-0742 (NSC834161), MRTX-1133 (NSC836407), osimertinib (NSC779217), RMC-4630 (NSC839698), RMC-6236 (NSC851965), RMC-6291 (NSC852671), Ro-3306 (NSC812927), sapanisertib (NSC764658), SN-38 (NSC673596), staurosporine (NSC755774), SY5609 (NSC837396), and tovorafenib (DAY101, NSC766906), were obtained from the National Cancer Institute (NCI) Developmental Therapeutics Program Chemical Repository. The FDA-approved anticancer drug set is available from the NCI Developmental Therapeutics Program. […] The stock solutions were prepared in dimethyl sulfoxide (DMSO, Sigma-Aldrich, St. Louis, MO, cat. D2650) at 800-fold the tested concentration and stored at -70 degrees C prior to their use. All drugs and investigational agents were tested over a range starting from a high concentration at or near the clinical Cmax and decreasing in half-log increments. If the clinical Cmax for an agent had not been determined, the highest concentration tested was 10 microM.
Cell Culture. All cells were maintained in an incubator at 37 degrees C and 5% CO2 with 95% humidity. The PDC lines were cultured according to standard operating procedures established by the NCI PDMR. All PDCs were thawed and cultured in Matrigel-coated flasks prepared with a working solution of 1X Ham's F-12 nutrient mix, without supplementation (Invitrogen, Waltham, MA, cat. 11765054), 100 U/mL penicillin-streptomycin (Invitrogen, cat. 15140122), and 2.5% Matrigel (Corning Inc., Corning, NY, cat. 354248) for the first three passages. The 362531-283-R-J2-PDC and 782815-120-R-J1-PDC lines were cultured in 6C/Colon 1B media, which includes advanced DMEM/F-12 (Thermo Fisher Scientific, cat. 12634028), 10 mM HEPES (Thermo Fisher Scientific, cat. 15630080), 1X GlutaMAX supplement (Thermo Fisher Scientific, cat. 35050061), 0.1 mg/mL primocin (InvivoGen, San Diego, CA, cat. ant-pm-2), 10% defined fetal bovine serum, heat inactivated (HyClone Laboratories Inc., Logan, UT, cat. SH30070.03HI), 50% L-WRN conditioned media (ATCC, cat. CRL-3276), 1.25 mM N-Acetyl-L-cysteine (Sigma-Aldrich, cat. A9165), 10 mM nicotinamide (Sigma-Aldrich, cat. N0636), 1X B-27 supplement (Thermo Fisher Scientific, cat. 17504044), 1X N-2 supplement (Thermo Fisher Scientific, cat. 17502048), 50 ng/mL human EGF (Thermo Fisher Scientific, cat. PHG0311), and 10 microM Y-27632 dihydrochloride (Tocris Bioscience, cat. 1254). The K12877-001-R-J1-PDC line was cultured in 6I media, which includes all 6C/Colon 1B media plus 10 ng/mL human FGF-10 (PeproTech, cat. 100-26), 1 ng/mL human FGF-2 (PeproTech, cat. 100-18B), 1 µM prostaglandin E2 (Tocris Bioscience, cat. 2296), […] hydrocortisone (Sigma-Aldrich, cat. H4001), and […] bovine insulin (Sigma-Aldrich, cat. I6634). The K86415-001-R-J1-PDC line was cultured in 6D media, which includes all 6C/Colon 1B media components minus the L-WRN conditioned media. The 485176-168-R4-J1-PDC was cultured in PANC media, which includes all 6C/Colon 1B media plus 100 ng/mL human FGF-10 (PeproTech, cat. 100-26), 500 nM SB-431542 (Selleckchem, cat. S1067), and 10 nM gastrin (Tocris Bioscience, cat. 3006). […]

[1] = second compound 0.00316 µM, first compound 0.0316 µM
[2] = second compound 0.00316 µM, first compound 0.1 µM
[3] = second compound 0.00316 µM, first compound 0.316 µM
[4] = second compound 0.00316 µM, first compound 1 µM
[5] = second compound 0.00316 µM, first compound 3.16 µM
[6] = second compound 0.00316 µM, first compound 10 µM
[7] = second compound 0.01 µM, first compound 0.0316 µM
[8] = second compound 0.01 µM, first compound 0.1 µM
[9] = second compound 0.01 µM, first compound 0.316 µM
[10] = second compound 0.01 µM, first compound 1 µM
[11] = second compound 0.01 µM, first compound 3.16 µM
[12] = second compound 0.01 µM, first compound 10 µM
[13] = second compound 0.0316 µM, first compound 0.0316 µM
[14] = second compound 0.0316 µM, first compound 0.1 µM
[15] = second compound 0.0316 µM, first compound 0.316 µM
[16] = second compound 0.0316 µM, first compound 1 µM
[17] = second compound 0.0316 µM, first compound 3.16 µM
[18] = second compound 0.0316 µM, first compound 10 µM
[19] = second compound 0.1 µM, first compound 0.0316 µM
[20] = second compound 0.1 µM, first compound 0.1 µM
[21] = second compound 0.1 µM, first compound 0.316 µM
[22] = second compound 0.1 µM, first compound 1 µM
[23] = second compound 0.1 µM, first compound 3.16 µM
[24] = second compound 0.1 µM, first compound 10 µM
[25] = second compound 0.316 µM, first compound 0.0316 µM
[26] = second compound 0.316 µM, first compound 0.1 µM
[27] = second compound 0.316 µM, first compound 0.316 µM
[28] = second compound 0.316 µM, first compound 1 µM
[29] = second compound 0.316 µM, first compound 3.16 µM
[30] = second compound 0.316 µM, first compound 10 µM
[31] = second compound 1 µM, first compound 0.0316 µM
[32] = second compound 1 µM, first compound 0.1 µM
[33] = second compound 1 µM, first compound 0.316 µM
[34] = second compound 1 µM, first compound 1 µM
[35] = second compound 1 µM, first compound 3.16 µM
[36] = second compound 1 µM, first compound 10 µM
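Further: spheroids exposed to the agents for 7 days before readout.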
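Wherever viability, T/C is given: luminescence viability as percent of DMSO vehicle control wells.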

CC1(O)CCCC1n1c(=O)c(C(F)F)cc2cnc(NC3CCN(S(C)(=O)=O)CC3)nc21 (stereo unspecified) + C=CC(=O)N1CCN(c2nc(OCC3CCCN3C)nc3c(F)c(-c4nc(N)cc(C)c4C(F)(F)F)c(Cl)cc23)C(C)C1
inactive: viability, T/C [1] 97.6% | viability, T/C [2] 98% | viability, T/C [3] 77.6% | viability, T/C [4] 68.3% | viability, T/C [5] 64.8% | viability, T/C [6] 101% | viability, T/C [7] 101% | viability, T/C [8] 97.1% | viability, T/C [9] 83.1% | viability, T/C [10] 75.5% | viability, T/C [11] 68.6% | viability, T/C [12] 65.7% | viability, T/C [13] 102% | viability, T/C [14] 93.2% | viability, T/C [15] 82.8% | viability, T/C [16] 76.1% | viability, T/C [17] 60% | viability, T/C [18] 95.2% | viability, T/C [19] 91.5% | viability, T/C [20] 95% | viability, T/C [21] 93.5% | viability, T/C [22] 75.2% | viability, T/C [23] 54.1% | viability, T/C [24] 89.7% | viability, T/C [25] 97.2% | viability, T/C [26] 92.5% | viability, T/C [27] 89.2% | viability, T/C [28] 70.2% | viability, T/C [29] 64.4% | viability, T/C [30] 69.1% | viability, T/C [31] 98.6% | viability, T/C [32] 104% | viability, T/C [33] 89.9% | viability, T/C [34] 77.4% | viability, T/C [35] 70.8% | viability, T/C [36] 53%
> 10 µM: IC50 (second compound 0.00316 µM) | IC50 (second compound 0.01 µM) | IC50 (second compound 0.0316 µM) | IC50 (second compound 0.1 µM) | IC50 (second compound 0.316 µM) | IC50 (second compound 1 µM)

C[C@@H](NC(=O)c1ncnc(N)c1Cl)c1ncc(C(=O)Nc2cc(C(F)(F)F)c(Cl)cn2)s1 + C#Cc1c(F)ccc2cc(O)cc(-c3ncc4c(N5CC6CCC(C5)N6)nc(OCC56CCCN5CC(F)C6)nc4c3F)c12
8.75 µM: IC50 (second compound 3.16 µM)
> 10 µM: IC50 (second compound 0.0316 µM) | IC50 (second compound 0.1 µM) | IC50 (second compound 0.316 µM) | IC50 (second compound 1 µM)
3.61 µM: IC50 (second compound 10 µM)
inactive: viability, T/C [13] 92.9% | viability, T/C [14] 111% | viability, T/C [15] 111% | viability, T/C [16] 97% | viability, T/C [17] 92.4% | viability, T/C [18] 70.5% | viability, T/C [19] 104% | viability, T/C [20] 97.1% | viability, T/C [21] 94.8% | viability, T/C [22] 95.3% | viability, T/C [23] 93.6% | viability, T/C [24] 66.1% | viability, T/C [25] 94.2% | viability, T/C [26] 96.9% | viability, T/C [27] 93.4% | viability, T/C [28] 94.4% | viability, T/C [29] 91.6% | viability, T/C [30] 60.7% | viability, T/C [31] 94.3% | viability, T/C [32] 84.8% | viability, T/C [33] 99.3% | viability, T/C [34] 87% | viability, T/C [35] 92.8% | viability, T/C [36] 52.5% | viability, T/C (second compound 3.16 µM, first compound 0.0316 µM) 78.6% | viability, T/C (second compound 3.16 µM, first compound 0.1 µM) 80.3% | viability, T/C (second compound 3.16 µM, first compound 0.316 µM) 79.2% | viability, T/C (second compound 3.16 µM, first compound 1 µM) 74.1% | viability, T/C (second compound 3.16 µM, first compound 3.16 µM) 69.8% | viability, T/C (second compound 3.16 µM, first compound 10 µM) 47.2% | viability, T/C (second compound 10 µM, first compound 0.0316 µM) 63% | viability, T/C (second compound 10 µM, first compound 0.1 µM) 75.4% | viability, T/C (second compound 10 µM, first compound 0.316 µM) 71.7% | viability, T/C (second compound 10 µM, first compound 1 µM) 60.6% | viability, T/C (second compound 10 µM, first compound 3.16 µM) 53.4% | viability, T/C (second compound 10 µM, first compound 10 µM) 31.6%

CCC(CC)c1cc(NC2CCC(N)C2)n2nccc2n1 (stereo unspecified) + C=CC(=O)N1CCN(c2nc(OCC3CCCN3C)nc3c(F)c(-c4nc(N)cc(C)c4C(F)(F)F)c(Cl)cc23)C(C)C1
4.14 µM: IC50 (second compound 0.00316 µM)
4.66 µM: IC50 (second compound 0.316 µM)
inactive: viability, T/C [1] 99.6% | viability, T/C [2] 100% | viability, T/C [3] 104% | viability, T/C [4] 95.2% | viability, T/C [5] 64.2% | viability, T/C [7] 102% | viability, T/C [8] 108% | viability, T/C [9] 106% | viability, T/C [10] 102% | viability, T/C [11] 73.5% | viability, T/C [13] 100% | viability, T/C [14] 115% | viability, T/C [15] 100% | viability, T/C [16] 103% | viability, T/C [17] 92.5% | viability, T/C [19] 102% | viability, T/C [20] 113% | viability, T/C [21] 102% | viability, T/C [22] 107% | viability, T/C [23] 79.1% | viability, T/C [25] 97% | viability, T/C [26] 97.2% | viability, T/C [27] 104% | viability, T/C [28] 109% | viability, T/C [29] 73.3% | viability, T/C [31] 107% | viability, T/C [32] 105% | viability, T/C [33] 95.8% | viability, T/C [34] 102% | viability, T/C [35] 70.5%
4.92 µM: IC50 (second compound 0.1 µM)
4.69 µM: IC50 (second compound 0.01 µM)
active: viability, T/C [6] 3.95% | viability, T/C [12] 5.05% | viability, T/C [18] 5.29% | viability, T/C [24] 3.6% | viability, T/C [30] 4.47% | viability, T/C [36] 5.01%
4.54 µM: IC50 (second compound 1 µM)
5.54 µM: IC50 (second compound 0.0316 µM)
